Experimental data taken from patent US7875647B2, “Heteroaryl-pyrazole derivatives as cannabinoid CB1 receptor antagonists” (Green Cross Corporation, priority 2006, dated 2011).

target: T1, Cannabinoid-1 receptor (CB1R) (Rattus norvegicus, UniProt P20272); test: Cannabinoid-1 receptor (CB1R) binding affinity assay ([3H]CP-55940, rat CB-1 receptor binding protocol); conditions: IC50(nM), brain tissue of SD rats, [3H]CP-55940, 30° C. 60 min
T1 construct: The tissue obtained from the brain of SD rats was homogenized; from tissue; host or cells: brain of SD rats (membrane pellet of the homogenate)
T1 sequence (P20272 whole entry): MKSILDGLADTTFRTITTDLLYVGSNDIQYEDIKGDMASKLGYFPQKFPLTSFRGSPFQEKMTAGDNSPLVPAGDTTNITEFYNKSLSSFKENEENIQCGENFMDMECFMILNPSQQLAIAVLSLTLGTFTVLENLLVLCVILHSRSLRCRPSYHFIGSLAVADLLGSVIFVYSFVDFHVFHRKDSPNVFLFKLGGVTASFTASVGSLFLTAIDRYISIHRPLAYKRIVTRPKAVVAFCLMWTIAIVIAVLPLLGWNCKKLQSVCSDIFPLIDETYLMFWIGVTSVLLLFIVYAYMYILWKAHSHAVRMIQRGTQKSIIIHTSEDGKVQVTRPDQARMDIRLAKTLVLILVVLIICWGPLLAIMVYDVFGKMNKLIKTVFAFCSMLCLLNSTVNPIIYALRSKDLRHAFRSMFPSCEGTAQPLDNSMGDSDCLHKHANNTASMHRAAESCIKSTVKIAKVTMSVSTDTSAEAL

Compound	IC50 [nM]
Cc1c(-c2nnc(C3CC=CC3)s2)nn(-c2ccc(Cl)cc2Cl)c1-c1ccc(Cl)cc1 [Example 384, 2-(5-(4-chlorophenyl)-1-(2,4-dichlorophenyl)-4-methyl-1H-pyrazol-3-yl)-5-(cyclopent-3-enyl)-1,3,4-thiadiazole]	20.2
Cc1c(-c2ncc(C(C)(C)C)o2)nn(-c2ccc(Cl)cc2Cl)c1-c1ccc(Cl)cc1 [Example 644, 5-tert-butyl-2-(5-(4-chlorophenyl)-1-(2,4-dichlorophenyl)-4-methyl-1H-pyrazol-3-yl)oxazole]	14.2
CC(C)(C)c1nnc(-c2nn(-c3ccc(Cl)cc3Cl)c(-c3ccc(Cl)cc3)c2C2CC2)s1 [Example 441, 2-tert-butyl-5-(5-(4-chlorophenyl)-4-cyclopropyl-1-(2,4-dichlorophenyl)-1H-pyrazol-3-yl)-1,3,4-thiadiazole]	29.8

same assay, conditions: brain tissue of SD rats, [3H]CP-55940, 30° C. 60 min; read-out: IC50

Compound	IC50 [nM]
CCC(C)c1nnc(-c2nn(-c3ccc(Cl)cc3Cl)c(-c3ccc(Cl)cc3)c2C)s1 (stereo not drawn) [Example 367, 2-sec-Butyl-5-(5-(4-chlorophenyl)-1-(2,4-dichlorophenyl)-4-methyl-1H-pyrazol-3-yl)-1,3,4-thiadiazole]	24.8
Cc1c(-c2nnc(CC3CCCCC3)o2)nn(-c2ccc(Cl)cc2Cl)c1-c1ccc(Br)cc1 [Example 56, 2-(5-(4-bromophenyl)-1-(2,4-dichlorophenyl)-4-methyl-1H-pyrazol-3-yl)-5-(cyclohexylmethyl)-1,3,4-oxadiazole]	37.6
Cc1c(-c2nnc(C(C)(C)C)s2)nn(-c2ccc(Cl)cc2Cl)c1-c1cccc(Cl)c1 [Example 434, 2-tert-butyl-5-(5-(3-chlorophenyl)-1-(2,4-dichlorophenyl)-4-methyl-1H-pyrazol-3-yl)-1,3,4-thiadiazole]	172
Cc1c(-c2nnc(C3(Cc4ccc(Cl)cc4)CC3)o2)nn(-c2ccc(Cl)cc2Cl)c1-c1ccc(Cl)cc1 [Example 280, 2-(1-(4-chlorobenzyl)cyclopropyl)-5-(5-(4-chlorophenyl)-1-(2,4-dichlorophenyl)-4-methyl-1H-pyrazol-3-yl)-1,3,4-oxadiazole]	11.7
C=Cc1c(-c2nnc(C(C)(C)C)o2)nn(-c2ccc(Cl)cc2Cl)c1-c1ccc(Cl)cc1 [Example 227, 2-tert-butyl-5-(5-(4-chlorophenyl)-1-(2,4-dichlorophenyl)-4-vinyl-1H-pyrazol-3-yl)-1,3,4-oxadiazole]	16.9
CCOC(C)(C)c1nnc(-c2nn(-c3ccc(Cl)cc3Cl)c(-c3ccc(Cl)cc3)c2C)s1 [Example 437, 2-(5-(4-chlorophenyl)-1-(2,4-dichlorophenyl)-4-methyl-1H-pyrazol-3-yl)-5-(2-ethoxypropan-2-yl)-1,3,4-thiadiazole]	53.6
Cc1c(-c2nnc(C3CCOCC3)s2)nn(-c2ccc(Cl)cc2Cl)c1-c1ccc(Cl)cc1 [Example 358, 2-(5-(4-Chlorophenyl)-1-(2,4-dichlorophenyl)-4-methyl-1H-pyrazol-3-yl)-5-(tetrahydro-2H-pyran-4-yl)-1,3,4-thiadiazole]	54.3
CCn1nc(-c2nn(-c3ccc(Cl)cc3Cl)c(-c3ccc(Cl)cc3)c2C)nc1C1CC1 [Example 629, 3-(5-(4-chlorophenyl)-1-(2,4-dichlorophenyl)-4-methyl-1H-pyrazol-3-yl)-5-cyclopropyl-1-ethyl-1H-1,2,4-triazole]	301
Cc1c(-c2nnc(CC3CCCCC3)o2)nn(-c2ccc(Cl)cc2Cl)c1-c1ccc(Cl)cc1 [Example 24, 2-(5-(4-Chlorophenyl)-1-(2,4-dichlorophenyl)-4-methyl-1H-pyrazol-3-yl)-5-(cyclohexylmethyl)-1,3,4-oxadiazole]	22.7
CC(C)(C)c1nnc(-c2nn(-c3ccc(Cl)cc3Cl)c(-c3ccc(Cl)cc3)c2C(F)F)o1 [Example 224, 2-tert-butyl-5-(5-(4-chlorophenyl)-1-(2,4-dichlorophenyl)-4-(difluoromethyl)-1H-pyrazol-3-yl)-1,3,4-oxadiazole]	36.1
CCC(C)c1nnc(-c2nn(-c3ccc(Cl)cc3Cl)c(-c3ccc(Cl)cc3)c2Cl)o1 (stereo not drawn) [Example 336, 2-sec-butyl-5-(4-chloro-5-(4-chlorophenyl)-1-(2,4-dichlorophenyl)-1H-pyrazol-3-yl)-1,3,4-oxadiazole]	207
Cc1c(-c2n[nH]c(C3CCCCC3)n2)nn(-c2ccc(Cl)cc2Cl)c1-c1ccc(Cl)cc1 [Example 612, 3-(5-(4-Chlorophenyl)-1-(2,4-dichlorophenyl)-4-methyl-1H-pyrazol-3-yl)-5-cyclohexyl-1H-1,2,4-triazole]	227
2-(1-benzylcyclopropyl)-5-(5-(4-bromophenyl)-1-(2,4-dichlorophenyl)-4-ethyl-1H-pyrazol-3-yl)-1,3,4-oxadiazole [Example 271]	5.88
Cc1c(-c2nnc(C3(C)CC3(Cl)Cl)o2)nn(-c2ccc(Cl)cc2Cl)c1-c1ccc(Cl)cc1 (stereo not drawn) [Example 65, 2-(5-(4-chlorophenyl)-1-(2,4-dichlorophenyl)-4-methyl-1H-pyrazol-3-yl)-5-(2,2-dichloro-1-methylcyclopropyl)-1,3,4-oxadiazole]	12.4
COc1ccc(C2(c3nnc(-c4nn(-c5ccc(Cl)cc5Cl)c(-c5ccc(Cl)cc5)c4C)s3)CC2)cc1 [Example 458, 2-(5-(4-chlorophenyl)-1-(2,4-dichlorophenyl)-4-methyl-1H-pyrazol-3-yl)-5-(1-(4-methoxyphenyl)cyclopropyl)-1,3,4-thiadiazole]	25.8
CCCn1nnc(-c2nn(-c3ccc(Cl)cc3Cl)c(-c3ccc(Cl)cc3)c2C)n1 [Example 566, 5-(5-(4-Chlorophenyl)-1-(2,4-dichlorophenyl)-4-methyl-1H-pyrazol-3-yl)-2-propyl-2H-tetrazole]	62.1
Cc1c(-c2ncc(CC(C)C)o2)nn(-c2ccc(Cl)cc2Cl)c1-c1ccc(Cl)cc1 [Example 641, 2-(5-(4-chlorophenyl)-1-(2,4-dichlorophenyl)-4-methyl-1H-pyrazol-3-yl)-5-isobutyloxazole]	40.6
Cc1c(-c2nnc(C3CCCCCC3)s2)nn(-c2ccc(Cl)cc2Cl)c1-c1ccc(Cl)cc1 [Example 362, 2-(5-(4-Chlorophenyl)-1-(2,4-dichlorophenyl)-4-methyl-1H-pyrazol-3-yl)-5-cycloheptyl-1,3,4-thiadiazole]	36.1
Cc1c(-c2nnc(C3(c4ccc(Cl)cc4)CCC3)o2)nn(-c2cccc(Cl)c2Cl)c1-c1ccc(Cl)cc1 [Example 137, 2-(5-(4-chlorophenyl)-1-(2,3-dichlorophenyl)-4-methyl-1H-pyrazol-3-yl)-5-(1-(4-chlorophenyl)cyclobutyl)-1,3,4-oxadiazole]	141
CCN(C)Cc1c(-c2nnc(C(C)(C)C)o2)nn(-c2ccc(Cl)cc2Cl)c1-c1ccc(Cl)cc1 [Example 290, N-((3-(5-tert-butyl-1,3,4-oxadiazol-2-yl)-5-(4-chlorophenyl)-1-(2,4-dichlorophenyl)-1H-pyrazol-4-yl)methyl)-N-methylethanamine]	227

More lines, now with the values ahead:

IC50 [nM]	Compound
10.7	CCC(C)c1nnc(-c2nn(-c3ccc(Cl)cc3Cl)c(-c3ccc(Br)cc3)c2C)s1 (stereo not drawn) [Example 403, 2-(5-(4-bromophenyl)-1-(2,4-dichlorophenyl)-4-methyl-1H-pyrazol-3-yl)-5-sec-butyl-1,3,4-thiadiazole]
8.14	Cc1c(-c2nnc(C3(c4ccc(Cl)cc4Cl)CC3)o2)nn(-c2ccc(Cl)cc2Cl)c1-c1ccc(Cl)cc1 [Example 130, 2-(5-(4-chlorophenyl)-1-(2,4-dichlorophenyl)-4-methyl-1H-pyrazol-3-yl)-5-(1-(2,4-dichlorophenyl)cyclopropyl)-1,3,4-oxadiazole]
8.02	CCCCC(C)(C)c1nnc(-c2nn(-c3ccccc3Cl)c(-c3ccc(Cl)cc3)c2C)s1 [Example 415, 2-(1-(2-chlorophenyl)-5-(4-chlorophenyl)-4-methyl-1H-pyrazol-3-yl)-5-(2-methylhexan-2-yl)-1,3,4-thiadiazole]
7.42	CCc1c(-c2nnc(C3(c4ccc(Cl)cc4)CCC3)o2)nn(-c2ccc(Cl)cc2Cl)c1-c1ccc(Cl)cc1 [Example 154, 2-(5-(4-chlorophenyl)-1-(2,4-dichlorophenyl)-4-ethyl-1H-pyrazol-3-yl)-5-(1-(4-chlorophenyl)cyclobutyl)-1,3,4-oxadiazole]
6.9	Cc1c(-c2nnc(C(C)(C)c3ccccc3)s2)nn(-c2ccc(Cl)cc2Cl)c1-c1ccc(Cl)cc1 [Example 401, 2-(5-(4-chlorophenyl)-1-(2,4-dichlorophenyl)-4-methyl-1H-pyrazol-3-yl)-5-(2-phenylpropan-2-yl)-1,3,4-thiadiazole]
6.72	CC(O)c1c(-c2nnc(C(C)(C)C)o2)nn(-c2ccc(Cl)cc2Cl)c1-c1ccc(Br)cc1 (stereo not drawn) [Example 208, 1-(5-(4-bromophenyl)-3-(5-tert-butyl-1,3,4-oxadiazol-2-yl)-1-(2,4-dichlorophenyl)-1H-pyrazol-4-yl)ethanol]
6.44	CC(C)(C)c1nnc(-c2nn(-c3ccc(Cl)cc3Cl)c(-c3ccc(Br)cc3)c2Cn2ncnn2)o1 [Example 302, 2-(4-((2H-tetrazol-2-yl)methyl)-5-(4-bromophenyl)-1-(2,4-dichlorophenyl)-1H-pyrazol-3-yl)-5-tert-butyl-1,3,4-oxadiazole]
5.39	O=Cc1c(-c2nnc(C3(c4ccc(Cl)cc4)CC3)o2)nn(-c2ccc(Cl)cc2Cl)c1-c1ccc(Cl)cc1 [Example 204, 5-(4-chlorophenyl)-3-(5-(1-(4-chlorophenyl)cyclopropyl)-1,3,4-oxadiazol-2-yl)-1-(2,4-dichlorophenyl)-1H-pyrazole-4-carbaldehyde]
4.53	CCc1c(-c2nnc(C3(c4ccc(OC)cc4)CC3)s2)nn(-c2ccc(Cl)cc2Cl)c1-c1ccc(Br)cc1 [Example 473, 2-(5-(4-bromophenyl)-1-(2,4-dichlorophenyl)-4-ethyl-1H-pyrazol-3-yl)-5-(1-(4-methoxyphenyl)cyclopropyl)-1,3,4-thiadiazole]
3.42	Clc1ccc(-c2c(Cn3cncn3)c(-c3nnc(C4CCCCC4)o3)nn2-c2ccc(Cl)cc2Cl)cc1 [Example 316, 2-(4-((1H-1,2,4-triazol-1-yl)methyl)-5-(4-chlorophenyl)-1-(2,4-dichlorophenyl)-1H-pyrazol-3-yl)-5-cyclohexyl-1,3,4-oxadiazole]
